{"source": "patent US20160304957A1", "about": "“TREATMENT AND MODULATION OF GENE EXPRESSION AND SKIN AGING” (DSM NUTRITIONAL PRODUCTS LTD., priority 2006, published 2016)", "key": {"HaCaT cells": {"system": "HaCaT cells", "description": "HaCaT cells were obtained from Prof. Fusenig, German Cancer Research Centre, Heidelberg. To gather cells more representative for the upper epidermal layer, we cloned the original cells by endpoint dilution. […] Cytokeratins were detected using anti-cytokeratin clones AE1/AE3 (Boehringer Mannheim, Germany) and anti-cytokeratin 1,10 antibody (Biogenesis Ltd., Poole, UK), respectively. […] Cells were propagated in FAD medium (DMEM/HAM's F12 3:1, Invitrogen); 5% NuSerum IV culture supplement and Miton™ 1:1000 (both Becton Dickinson, Bedford, Mass., USA). On day 0 of the experiment, cells were seeded at 2×10^5 cells per 60 mm dish. Cells were counted using a Coulter Multisizer (IG Instrumenten Gesellschaft, Zurich, Switzerland). […] On days 1 and 2, the media were replaced with fresh β-carotene-containing FAD medium without phenol red; 2% NuSerum; penicillin/streptomycin.\nβ-Carotene stock solutions and β-carotene-containing media were prepared under reduced light conditions. All-E-β-carotene was synthesized by DSM Nutritional Products (Kaiseraugst, Switzerland). β-carotene was dissolved in tetrahydrofurane (THF containing 0.025% butyl hydroxytoluol; Fluka Chemie A G, Buchs, Switzerland). Immediately before preparing the β-carotene stock solution, THF was purified over a basic aluminum oxide grade 1 (Camag, Muttenz, Switzerland) column. The n-carotene stock solution was prepared fresh for each experiment, and stored under argon at −20° C. until use. To prepare β-carotene-containing medium, the β-carotene stock solution was first diluted 1:1 with ethanol. This β-carotene/solvent mixture was then added to the cell culture medium to give a final concentration of 0.5, 1.5, or 3 μM β-carotene. β-carotene-containing medium was prepared fresh for the daily medium changes. The solvent concentration in the medium was kept constant at 0.5% for all treatment conditions.\nAll extraction and analytical procedures were carried out in brown glass, and under reduced light conditions. Acetonitrile, tert-butylmethylether, acetone and ethanol p. a. were from E. Merck K G (Darmstadt, Germany). Ammonium acetate p.a., butylated hydroxy toluene p.a., tetrahydrofuran p.a., triethylamine p.a., were from Fluka Chemie A G (Buchs, Switzerland). HPLC grade solvents for stock solutions, dilutions, and sample solvent mixtures were additionally purified over basic aluminum oxide grade 1 (Camag, Muttenz, Switzerland). To determine the β-carotene content of cells, the cell layer was washed 5 times with PBS/2% BSA. The cells were detached by trypsin/EDTA 0.05/0.02% and centrifuged at 10,000×g for 1 minute Cell pellets were lysed with acetone containing 0.025% BHT (v/w), vortex-mixed and dried in a speed-vac. The dried residue was extracted with ethanol/tBME/THF, 9:5:1, containing 0.025% of BHT (v/w) by vigorous vortex-mixing for one minute, and centrifugation for 3 minutes at 10,000×g. An aliquot of the clear supernatant was injected into the HPLC system. Cell culture medium was directly extracted with the solvent mixture described above, and the extract was treated as described for the cell pellets.\nThe HPLC system consisted of a 520 pump, a 565 autosampler cooled at 6° C., a 540+ diode array detector, a SDU 2003 solvent degasser unit and the Chroma 3000 data analysis system from Bio-Tek Instruments (Basel, Switzerland). A Vydac 218TP54 column (250×4.5 mm i.d., 300 angstrom pore wide) from the Separation Group (Hesperia, USA) was used for separation."}, "photosensitization": {"system": "photosensitization", "settings": "EPP patients, 180 mg/d; cited from earlier work"}, "[1]": {"assay": "β-Carotene concentration in culture medium during incubation", "format": "physicochemical", "settings": "24 hours of incubation, irrespective of the presence of cells", "protocol": "β-carotene-containing medium was prepared as follows. Fresh all-E-β-carotene (DSM Nutritional Products, Kaiseraugst, Switzerland) stock solution in THF (containing 0.025% BHT; Fluka Chemie A G, Switzerland) was diluted 1:2 with ethanol and added to cell culture medium to a final concentration of 1.5 μM β-carotene. The solvent concentration in the medium was 0.5% for all treatments. β-carotene-containing medium was prepared fresh for the daily medium changes."}, "non-melanoma skin cancer": {"system": "non-melanoma skin cancer", "settings": "clinical intervention trials; cited from earlier work"}, "skin carcinogenesis": {"system": "skin carcinogenesis", "settings": "supplementation, rodents; cited from earlier work"}, "MMP-1": {"system": "MMP-1", "assay": "ELISA of MMP-1 release into cell culture supernatant of HaCaT cells", "format": "cell-based, human", "protocol": "(§1) HaCaT cells were supplemented with 0.5, 1.5, or 3 μM β-carotene for 2 days prior to UVA (270 kJ/m^2) irradiation. MMP-1 and TIMP-1 secretion 24 hours after irradiation was analyzed by ELISA. Each condition was represented by three replicates in the experiment. Values are means±standard error.\n(§2) Release of MMP-1, and TIMP-1 into cell culture supernatant was determined by ELISA at 24 hours after irradiation. MMP-1 and TIMP-1 release was measured using MMP-1 and TIMP ELISA from CALBIOCHEM (San Diego, Calif., USA). The ELISAs were performed according to the manufacturer's instructions."}, "TIMP-1": {"system": "TIMP-1", "assay": "ELISA of TIMP-1 release into cell culture supernatant of HaCaT cells", "format": "cell-based, human", "settings": "β-carotene, with or without UVA", "protocol": "as §1, §2"}}}
{"smiles": "CC1=C(/C=C/C(C)=C/C=C/C(C)=C/C=C/C=C(C)/C=C/C=C(C)/C=C/C2=C(C)CCCC2(C)C)C(C)(C)CCC1", "note": "[β-carotene, All-E-β-carotene]", "values": [{"measurement": "Retinol cellular content", "setting": "HaCaT cells", "result": "<LOD"}, {"measurement": "Retinyl Palmitate cellular content", "setting": "HaCaT cells", "result": "<LOD"}, {"measurement": "cellular β-carotene content relative to 72 hours", "setting": "HaCaT cells", "result": "about half"}, {"measurement": "retinol or retinyl esters formed from β-carotene", "setting": "HaCaT cells", "result": "do not produce detectable amounts"}, {"measurement": "time of peak cellular β-carotene concentration", "setting": "HaCaT cells", "result": 72, "unit": "h"}, {"measurement": "symptoms of photosensitization", "setting": "photosensitization", "result": "alleviated the symptoms of photosensitization"}, {"measurement": "β-carotene concentration in medium remaining", "setting": "[1]", "result": "approximately 50%"}, {"measurement": "prevention of non-melanoma skin cancer", "setting": "non-melanoma skin cancer", "result": "no significant prevention"}, {"measurement": "skin carcinogenesis", "setting": "skin carcinogenesis", "result": "reduced skin carcinogenesis"}, {"measurement": "UVA-induced MMP-1 production, protein level", "setting": "MMP-1; 24 hours after UVA", "result": "Downregulation"}, {"measurement": "basal MMP-1 protein expression", "setting": "MMP-1; unirradiated cells", "result": "tended to reduce"}, {"measurement": "TIMP-1 protein level", "setting": "TIMP-1", "result": "not significantly influenced"}]}
